Active and inactive are the calls of the source. The rule behind the calls is not given here.
Assays:
SR = experiment: Antitumor activity against human SR cells after 48 hrs; format: functional
EKVX = experiment: Antitumor activity against human EKVX cells after 48 hrs; format: functional, cell-based
SK-MEL-28 = experiment: Antitumor activity against human SK-MEL-28 cells after 48 hrs; format: functional; conditions: SK-MEL-28, 48 h
[1] = Antitumor activity against human COLO205 cells after 48 hrs; format: functional; conditions: COLO 205, 48 h
TK-10 = experiment: Antitumor activity against human TK10 cells after 48 hrs; format: functional; conditions: TK-10, 48 h
HCT-116 = experiment: Antitumor activity against human HCT116 cells after 48 hrs; format: functional; conditions: HCT-116, 48 h
NCI-H226 = experiment: Antitumor activity against human NCI-H226 cells after 48 hrs; format: functional; conditions: NCI-H226, 48 h
MDA-MB-468 = experiment: Antitumor activity against human MDA-MB-468 cells after 48 hrs; format: functional; conditions: MDA-MB-468, 48 h
OVCAR-8 = experiment: Antitumor activity against human OVCAR8 cells after 48 hrs; format: functional; conditions: OVCAR-8, 48 h
UO-31 = experiment: Antitumor activity against human UO31 cells after 48 hrs; format: functional; conditions: UO-31, 48 h
NCI-H522 = experiment: Antitumor activity against human NCI-H522 cells after 48 hrs; format: functional; conditions: NCI-H522, 48 h
MDA-MB-231 = experiment: Antitumor activity against human MDA-MB-231 cells after 48 hrs; format: functional; conditions: MDA-MB-231, 48 h
SF-268 = experiment: Antitumor activity against human SF268 cells after 48 hrs; format: functional; conditions: SF-268, 48 h
SK-MEL-5 = experiment: Antitumor activity against human SK-MEL-5 cells after 48 hrs; format: functional; conditions: SK-MEL-5, 48 h
T47D = experiment: Antitumor activity against human T47D cells after 48 hrs; format: functional
PC-3 = experiment: Antitumor activity against human PC3 cells after 48 hrs; format: functional; conditions: PC-3, 48 h
A549 = experiment: Antitumor activity against human A549 cells after 48 hrs; format: functional; conditions: A549, 48 h
MCF7 = experiment: Antitumor activity against human MCF7 cells after 48 hrs; format: functional; conditions: MCF7, 48 h
HL-60(TB) = experiment: Antitumor activity against human HL-60(TB) cells after 48 hrs; format: functional; conditions: HL-60, 48 h
UACC-257 = experiment: Antitumor activity against human UACC257 cells after 48 hrs; format: functional; conditions: UACC-257, 48 h
SN12C = experiment: Antitumor activity against human SN12C cells after 48 hrs; format: functional
[2] = Antitumor activity against human SF295 cells after 48 hrs; format: functional; conditions: SF-295, 48 h
OVCAR-5 = experiment: Antitumor activity against human OVCAR5 cells after 48 hrs; format: functional; conditions: OVCAR-5, 48 h
[3] = Antitumor activity against human LOXIMVI cells after 48 hrs; format: functional; conditions: LOX IMVI
SK-MEL-2 = experiment: Antitumor activity against human SK-MEL-2 cells after 48 hrs; format: functional; conditions: SK-MEL-2, 48 h
SNB-19 = experiment: Antitumor activity against human SNB19 cells after 48 hrs; format: functional; conditions: SNB-19, 48 h
[4] = Antitumor activity against human NCI-ADR-RES cells after 48 hrs; format: functional
NCI-H322M = experiment: Antitumor activity against human NCI-H322M cells after 48 hrs; format: functional
[5] = Antitumor activity against human RXF393 cells after 48 hrs; format: functional; conditions: RXF 393, 48 h
SW-620 = experiment: Antitumor activity against human SW620 cells after 48 hrs; format: functional; conditions: SW-620, 48 h
786-0 = experiment: Antitumor activity against human 786-0 cells after 48 hrs; format: functional; conditions: 786-0, 48 h
HT-29 = experiment: Antitumor activity against human HT-29 cells after 48 hrs; format: functional; conditions: HT-29, 48 h
HCT-15 = experiment: Antitumor activity against human HCT15 cells after 48 hrs; format: functional; conditions: HCT-15, 48 h
M14 = experiment: Antitumor activity against human M14 cells after 48 hrs; format: functional; conditions: M14, 48 h
MDA-MB-435 = experiment: Antitumor activity against human MDA-MB-435 cells after 48 hrs; format: functional; conditions: MDA-MB-435, 48 h
DU-145 = experiment: Antitumor activity against human DU145 cells after 48 hrs; format: functional; conditions: DU-145, 48 h
[6] = Antitumor activity against human SF539 cells after 48 hrs; format: functional; conditions: SF-539, 48 h
IGROV-1 = experiment: Antitumor activity against human IGROV1 cells after 48 hrs; format: functional; conditions: IGROV-1, 48 h
[7] = Antitumor activity against human HOP92 cells after 48 hrs; format: functional; conditions: HOP-92, 48 h
SNB-75 = experiment: Antitumor activity against human SNB75 cells after 48 hrs; format: functional; conditions: SNB-75, 48 h
K562 = experiment: Antitumor activity against human K562 cells after 48 hrs; format: functional; conditions: K562, 48 h
[8] = Antitumor activity against human MOLT4 cells after 48 hrs; format: functional; conditions: MOLT-4, 48 h
U-251 = experiment: Antitumor activity against human U251 cells after 48 hrs; format: functional; conditions: U-251, 48 h
[9] = Antitumor activity against human RPMI8226 cells after 48 hrs; format: functional; conditions: RPMI-8226, 48 h
CAKI-1 = experiment: Antitumor activity against human Caki1 cells after 48 hrs; format: functional; conditions: CAKI-1, 48 h
A498 = experiment: Antitumor activity against human A498 cells after 48 hrs; format: functional; conditions: A498, 48 h
NCI-H23 = experiment: Antitumor activity against human NCI-H23 cells after 48 hrs; format: functional; conditions: NCI-H23, 48 h
ACHN = experiment: Antitumor activity against human ACHN cells after 48 hrs; format: functional
NCI-H460 = experiment: Antitumor activity against human NCI-H460 cells after 48 hrs; format: functional; conditions: NCI-H460, 48 h
SK-OV-3 = experiment: Antitumor activity against human SKOV3 cells after 48 hrs; format: functional; conditions: SK-OV-3, 48 h
Malme-3M = experiment: Antitumor activity against human MALME-3M cells after 48 hrs; format: functional
[10] = Antitumor activity against human Hs578T cells after 48 hrs; format: functional; conditions: Hs-578T
[11] = Antitumor activity against human BT549 cells after 48 hrs; format: functional; conditions: BT-549, 48 h
[12] = Antitumor activity against human HCC2998 cells after 48 hrs; format: functional; conditions: HCC 2998, 48 h
OVCAR-3 = experiment: Antitumor activity against human OVCAR3 cells after 48 hrs; format: functional; conditions: OVCAR-3, 48 h
HOP-62 = experiment: Antitumor activity against human HOP62 cells after 48 hrs; format: functional; conditions: HOP-62, 48 h
CCRF-CEM = experiment: Antitumor activity against human CCRF-CEM cells after 48 hrs; format: functional
KM12 = experiment: Antitumor activity against human KM12 cells after 48 hrs; format: functional; conditions: KM12, 48 h
UACC-62 = experiment: Antitumor activity against human UACC62 cells after 48 hrs; format: functional; conditions: UACC-62, 48 h
OVCAR-4 = experiment: Antitumor activity against human OVCAR4 cells after 48 hrs; format: functional; conditions: OVCAR-4, 48 h

## COc1cc(/C(C#N)=C/c2ccc3ccccc3n2)cc(OC)c1OC
SR
  GI50: inactive
EKVX
  GI50: inactive
SK-MEL-28
  GI50: 518 nM
[1]
  GI50: 198 nM
TK-10
  GI50: 4690 nM
HCT-116
  GI50: 234 nM
NCI-H226
  GI50: 4780 nM
MDA-MB-468
  GI50: 243 nM
OVCAR-8
  GI50: 446 nM
UO-31
  GI50: 762 nM
NCI-H522
  GI50: 37.2 nM
MDA-MB-231
  GI50: 943 nM
SF-268
  GI50: 835 nM
SK-MEL-5
  GI50: 243 nM
T47D
  GI50: 4760 nM
PC-3
  GI50: 348 nM
A549
  GI50: 375 nM
MCF7
  GI50: 275 nM
HL-60(TB)
  GI50: 223 nM
UACC-257
  GI50: 761 nM
SN12C
  GI50: 627 nM
[2]
  GI50: 277 nM
OVCAR-5
  GI50: 580 nM
[3]
  GI50: 766 nM
SK-MEL-2
  GI50: 483 nM
SNB-19
  GI50: 578 nM
[4]
  GI50: 112 nM
NCI-H322M
  GI50: 718 nM
[5]
  GI50: 271 nM
SW-620
  GI50: 164 nM
786-0
  GI50: 445 nM
HT-29
  GI50: 240 nM
HCT-15
  GI50: 319 nM
M14
  GI50: 173 nM
MDA-MB-435
  GI50: 33 nM
DU-145
  GI50: 446 nM
[6]
  GI50: 197 nM
IGROV-1
  GI50: 846 nM
[7]
  GI50: 736 nM
SNB-75
  GI50: 182 nM
K562
  GI50: 80 nM
[8]
  GI50: 488 nM
U-251
  GI50: 355 nM
[9]
  GI50: 297 nM
CAKI-1
  GI50: 68 nM
A498
  GI50: 295 nM
NCI-H23
  GI50: 751 nM
ACHN
  GI50: 1040 nM
NCI-H460
  GI50: 361 nM
SK-OV-3
  GI50: 524 nM
Malme-3M
  GI50: inactive
[10]
  GI50: 689 nM
[11]
  GI50: 315 nM
[12]
  GI50: 610 nM
OVCAR-3
  GI50: 163 nM
HOP-62
  GI50: 567 nM
CCRF-CEM
  GI50: 248 nM
KM12
  GI50: 350 nM
UACC-62
  GI50: 92 nM
OVCAR-4
  GI50: 1430 nM

From ChEMBL document CHEMBL3585283, “Synthesis and evaluation of a series of quinolinyl trans-cyanostilbene analogs as anticancer agents” (2014)
